# Measurements published in ChEMBL document CHEMBL2010711, “Synthesis and comparative evaluation of 4-oxa- and 4-aza-podophyllotoxins as antiproliferative microtubule destabilizing agents” (Bioorg Med Chem Lett, 2012).
# Active and inactive are the calls of the source.
# Key:
# TK-10 = assay: Cytotoxicity against human TK10 cells after 48 hrs by trypan blue dye exclusion assay; type: functional; settings: TK-10, 48 h
# OVCAR-8 = assay: Cytotoxicity against human OVCAR8 cells after 48 hrs by trypan blue dye exclusion assay; type: functional; settings: OVCAR-8, 48 h
# SK-MEL-2 = assay: Cytotoxicity against human SK-MEL-2 cells after 48 hrs by trypan blue dye exclusion assay; type: functional; settings: SK-MEL-2, 48 h
# MDA-MB-231 = assay: Cytotoxicity against human MDA-MB-231 cells after 48 hrs by trypan blue dye exclusion assay; type: functional; settings: MDA-MB-231, 48 h
# SNB-19 = assay: Cytotoxicity against human SNB19 cells after 48 hrs by trypan blue dye exclusion assay; type: functional; settings: SNB-19, 48 h
# SF-268 = assay: Cytotoxicity against human SF268 cells after 48 hrs by trypan blue dye exclusion assay; type: functional; settings: SF-268, 48 h
# NCI-H23 = assay: Cytotoxicity against human NCI-H23 cells after 48 hrs by trypan blue dye exclusion assay; type: functional; settings: NCI-H23, 48 h
# Paracentrotus lividus [1] = assay: Antimitotic activity against Paracentrotus lividus embryo assessed as concentration required to cause 100% cleavage arrest after 2.5 to 6 hrs; type: functional
# OVCAR-3 = assay: Cytotoxicity against human OVCAR3 cells after 48 hrs by trypan blue dye exclusion assay; type: functional; settings: OVCAR-3, 48 h
# HCC 2998 = assay: Cytotoxicity against human HCC2998 cells after 48 hrs by trypan blue dye exclusion assay; type: functional; settings: HCC 2998, 48 h
# IGROV-1 = assay: Cytotoxicity against human IGROV1 cells after 48 hrs by trypan blue dye exclusion assay; type: functional; settings: IGROV-1, 48 h
# PC-3 = assay: Cytotoxicity against human PC3 cells after 48 hrs by trypan blue dye exclusion assay; type: functional; settings: PC-3, 48 h
# NCI-H522 = assay: Cytotoxicity against human NCI-H522 cells after 48 hrs by trypan blue dye exclusion assay; type: functional; settings: NCI-H522, 48 h
# SF-295 = assay: Cytotoxicity against human SF295 cells after 48 hrs by trypan blue dye exclusion assay; type: functional; settings: SF-295, 48 h
# SK-MEL-5 = assay: Cytotoxicity against human SK-MEL-5 cells after 48 hrs by trypan blue dye exclusion assay; type: functional; settings: SK-MEL-5, 48 h
# RXF 393 = assay: Cytotoxicity against human RXF393 cells after 48 hrs by trypan blue dye exclusion assay; type: functional; settings: RXF 393, 48 h
# SW-620 = assay: Cytotoxicity against human SW620 cells after 48 hrs by trypan blue dye exclusion assay; type: functional; settings: SW-620, 48 h
# SK-OV-3 = assay: Cytotoxicity against human SKOV3 cells after 48 hrs by trypan blue dye exclusion assay; type: functional; settings: SK-OV-3, 48 h
# NCI-H322M = assay: Cytotoxicity against human NCI-H322M cells after 48 hrs by trypan blue dye exclusion assay; type: functional
# EKVX = assay: Cytotoxicity against human EKVX cells after 48 hrs by trypan blue dye exclusion assay; type: functional
# OVCAR-5 = assay: Cytotoxicity against human OVCAR5 cells after 48 hrs by trypan blue dye exclusion assay; type: functional; settings: OVCAR-5, 48 h
# KM12 = assay: Cytotoxicity against human KM12 cells after 48 hrs by trypan blue dye exclusion assay; type: functional; settings: KM12, 48 h
# MDA-MB-468 = assay: Cytotoxicity against human MDA-MB-468 cells after 48 hrs by trypan blue dye exclusion assay; type: functional; settings: MDA-MB-468, 48 h
# SR = assay: Cytotoxicity against human SR cells after 48 hrs by trypan blue dye exclusion assay; type: functional
# SF-539 = assay: Cytotoxicity against human SF539 cells after 48 hrs by trypan blue dye exclusion assay; type: functional; settings: SF-539, 48 h
# MOLT-4 = assay: Cytotoxicity against human MOLT4 cells after 48 hrs by trypan blue dye exclusion assay; type: functional; settings: MOLT-4, 48 h
# SK-MEL-28 = assay: Cytotoxicity against human SK-MEL-28 cells after 48 hrs by trypan blue dye exclusion assay; type: functional; settings: SK-MEL-28, 48 h
# Paracentrotus lividus [2] = assay: Antimitotic activity against Paracentrotus lividus embryo assessed as cleavage alteration at 2 fold less effective threshold concentration after 2.5 to 6 hrs; type: functional, organism-based
# Paracentrotus lividus [3] = assay: Antimitotic activity against Paracentrotus lividus embryo assessed as cleavage arrest at 2 fold less effective threshold concentration after 2.5 to 6 hrs; type: functional, organism-based
# UACC-62 = assay: Cytotoxicity against human UACC62 cells after 48 hrs by trypan blue dye exclusion assay; type: functional; settings: UACC-62, 48 h
# A549 = assay: Cytotoxicity against human A549 cells after 48 hrs by trypan blue dye exclusion assay; type: functional; settings: A549, 48 h
smiles,measurement,setting,value
COc1ccc2c(c1)OC1=C(C(=O)OC1)C2c1cc(OC)c2c(c1)OCCO2 (stereo unspecified),GI50,TK-10,36500 nM
same,GI50,OVCAR-8,49.5 nM
same,GI50,SK-MEL-2,48.3 nM
same,GI50,MDA-MB-231,110 nM
same,GI50,SNB-19,50.4 nM
same,GI50,SF-268,85.1 nM
same,GI50,NCI-H23,38.2 nM
same,EC,Paracentrotus lividus [1],50 nM
same,GI50,OVCAR-3,26.2 nM
same,GI50,HCC 2998,75.7 nM
same,GI50,IGROV-1,86 nM
same,GI50,PC-3,46.9 nM
same,GI50,NCI-H522,37.3 nM
same,GI50,SF-295,31.5 nM
same,GI50,SK-MEL-5,32.9 nM
same,GI50,RXF 393,18.7 nM
same,GI50,SW-620,36.2 nM
same,GI50,SK-OV-3,33.3 nM
same,GI50,NCI-H322M,47.4 nM
same,GI50,EKVX,68.2 nM
same,GI50,OVCAR-5,126 nM
same,GI50,KM12,42.7 nM
same,GI50,MDA-MB-468,23.1 nM
same,GI50,SR,32.8 nM
same,GI50,SF-539,29.3 nM
same,GI50,MOLT-4,81.7 nM
same,GI50,SK-MEL-28,51.7 nM
same,Activity,Paracentrotus lividus [2],inactive
same,Activity,Paracentrotus lividus [3],inactive
same,GI50,UACC-62,39.2 nM
same,GI50,A549,52.3 nM
